Patent publication US7566727B2, “2-(1-aza-bicyclo[2.2.2]oct-3-yl)-2,3-dihydro-isoindole-1-one/5,6-dihydro-furo[2,3-c] pyrrol-4-one derivative ligands for alpha 7 nicotinic acetylcholine receptor” (priority 2004, dated 2009)

These molecules were tested against α7 nAChR subtype (Rattus norvegicus, UniProt Q05941) (assay: Test A: 125I-α-Bungarotoxin binding to rat hippocampal membranes (affinity at α7 nAChR subtype)). Details: [125I]α-BTX displacement, rat hippocampal membranes.
Chain of α7 nAChR subtype (Q05941 23-502): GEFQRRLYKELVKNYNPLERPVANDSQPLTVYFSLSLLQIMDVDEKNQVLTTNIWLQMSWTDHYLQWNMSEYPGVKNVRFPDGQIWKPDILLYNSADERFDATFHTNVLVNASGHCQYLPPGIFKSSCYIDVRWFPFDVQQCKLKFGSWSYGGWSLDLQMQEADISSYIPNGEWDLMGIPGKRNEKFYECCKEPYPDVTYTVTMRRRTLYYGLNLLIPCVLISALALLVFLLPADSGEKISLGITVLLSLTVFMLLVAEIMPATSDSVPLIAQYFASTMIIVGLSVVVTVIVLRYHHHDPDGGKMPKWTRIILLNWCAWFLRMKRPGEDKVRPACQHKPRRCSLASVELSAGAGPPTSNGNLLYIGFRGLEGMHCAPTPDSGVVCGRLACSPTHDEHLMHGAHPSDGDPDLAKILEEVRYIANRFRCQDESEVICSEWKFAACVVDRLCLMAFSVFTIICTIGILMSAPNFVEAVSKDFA
Description: Test A—Assay for Affinity at α7 nAChR subtype
125I-α-Bungarotoxin (BTX) binding to rat hippocampal membranes. Rat hippocampi were homogenized in 20 volumes of cold homogenization buffer (HB: concentrations of constituents (mM): tris(hydroxymethyl)aminomethane 50; MgCl2 1; NaCl 120; KCl 5: pH 7.4). The homogenate was centrifuged for 5 minutes at 1000 g, the supernatant was saved and the pellet re-extracted. The pooled supernatants were centrifuged for 20 minutes at 12,000 g, washed, and re-suspended in HB. Membranes (30-80 μg) were incubated with 5 nM [^125I] α-BTX, 1 mg/mL BSA (bovine serum albumin), test drug, and either 2 mM CaCl2 or 0.5 mM EGTA [ethylene glycol-bis(β-aminoethylether)] for 2 hours at 21° C., and then filtered and washed 4 times over Whatman glass fibre filters (thickness C) using a Brandel cell harvester.
Binding data analysis for Tests A and B
IC50 values and pseudo Hill coefficients (nH) were calculated using the non-linear curve fitting program ALLFIT (DeLean A, Munson P J and Rodbard D (1977) Am. J. Physiol., 235:E97-E102). […] Ki values were determined using 6 or more drug concentrations.
Work on `CCNC(=O)c1ccc(-c2ccc3c(c2)C(=O)N([C@H]2CN4CCC2CC4)C3)cc1` [Example 53, 4-((R)-2-1-Aza-bicyclo[2.2.2]oct-3-yl-3-oxo-2,3-dihydro-1H-isoindol-5-yl)-N-ethyl-benzamide] yielded a Ki of 348 nM. In the case of `CC(C)Oc1cccc(-c2ccc3c(c2)C(=O)N([C@H]2CN4CCC2CC4)C3)c1` [Example 61, 2-(R)-1-Aza-bicyclo[2.2.2]oct-3-yl-6-(3-isopropoxy-phenyl)-2,3-dihydro-isoindol-1-one], the Ki is reported as 14 nM. `COc1ccc(-c2ccc3c(c2)C(=O)N([C@H]2CN4CCC2CC4)C3)cn1` [Example 46, 2-(R)-1-Aza-bicyclo[2.2.2]oct-3-yl-6-(6-methoxy-pyridin-3-yl)-2,3-dihydro-isoindol-1-one] was tested, and the Ki was 290 nM. `COc1cccc(-c2ccc3c(c2)C(=O)N([C@H]2CN4CCC2CC4)C3)c1` [Example 30, 2-(R)-1-Aza-bicyclo[2.2.2]oct-3-yl-6-(3-methoxy-phenyl)-2,3-dihydro-isoindol-1-one] showed a Ki of 21.8 nM. In the case of `Nc1cccc(-c2ccc3c(c2)C(=O)N([C@H]2CN4CCC2CC4)C3)c1` [Example 57, 6-(3-Amino-phenyl)-2-(R)-1-aza-bicyclo[2.2.2]oct-3-yl-2,3-dihydro-isoindol-1-one], the Ki is reported as 6.4 nM. In the case of `COc1cc(OC)cc(-c2ccc3c(c2)C(=O)N([C@H]2CN4CCC2CC4)C3)c1` [Example 54, 2-(R)-1-Aza-bicyclo[2.2.2]oct-3-yl-6-(3,5-dimethoxy-phenyl)-2,3-dihydro-isoindol-1-one], the Ki is reported as 669 nM. In the case of `O=C1c2cc(-c3cccc(Cl)c3)ccc2CN1[C@H]1CN2CCC1CC2` [Example 31, 2-(R)-1-Aza-bicyclo[2.2.2]oct-3-yl-6-(3-chloro-phenyl)-2,3-dihydro-isoindol-1-one], the Ki is reported as 45.4 nM. Molecule `Cn1cc(-c2ccc3c(c2)C(=O)N([C@H]2CN4CCC2CC4)C3)cn1` [Example 50, 2-(R)-1-Aza-bicyclo[2.2.2]oct-3-yl-6-(1-methyl-1H-pyrazol-4-yl)-2,3-dihydro-isoindol-1-one] has a Ki of 61 nM. Work on `CN1CCN(c2ccc3c(c2)C(=O)N([C@H]2CN4CCC2CC4)C3)CC1` [Example 38, 2-(R)-1-Aza-bicyclo[2.2.2]oct-3-yl-6-(4-methyl-piperazin-1-yl)-2,3-dihydro-isoindol-1-one] yielded a Ki of 424 nM. In the case of `O=C1c2cc(Cl)ccc2CN1[C@H]1CN2CCC1CC2` [Example 29, 2-(R)-1-Aza-bicyclo[2.2.2]oct-3-yl-6-chloro-2,3-dihydro-isoindol-1-one], the Ki is reported as 289 nM. In the case of `COc1cncc(-c2ccc3c(c2)C(=O)N([C@H]2CN4CCC2CC4)C3)c1` [Example 59, 2-(R)-1-Aza-bicyclo[2.2.2]oct-3-yl-6-(5-methoxy-pyridin-3-yl)-2,3-dihydro-isoindol-1-one], the Ki is reported as 383 nM. `O=C1c2cc(-c3ccc4c(c3)OCCO4)ccc2CN1[C@H]1CN2CCC1CC2` [Example 60, 2-(R)-1-Aza-bicyclo[2.2.2]oct-3-yl-6-(2,3-dihydro-benzo[1,4]dioxin-6-yl)-2,3-dihydro-isoindol-1-one] gave a Ki of 28 nM. With `COc1ccc(-c2ccc3c(c2)C(=O)N([C@H]2CN4CCC2CC4)C3)cc1` [Example 28, 2-(R)-1-Aza-bicyclo[2.2.2]oct-3-yl-6-(4-methoxy-phenyl)-2,3-dihydro-isoindol-1-one] the Ki was 77 nM. With `O=C1c2cc(-c3cccc(OC(F)(F)F)c3)ccc2CN1[C@H]1CN2CCC1CC2` [Example 62, 2-(R)-1-Aza-bicyclo[2.2.2]oct-3-yl-6-(3-trifluoromethoxy-phenyl)-2,3-dihydro-isoindol-1-one] the Ki was 48 nM. `O=C1c2cc(-c3ccc(Cl)cc3)ccc2CN1[C@H]1CN2CCC1CC2` [Example 32, 2-(R)-1-Aza-bicyclo[2.2.2]oct-3-yl-6-(4-chloro-phenyl)-2,3-dihydro-isoindol-1-one] showed a Ki of 90 nM. `CC(=O)Nc1cccc(-c2ccc3c(c2)C(=O)N([C@H]2CN4CCC2CC4)C3)c1` [Example 37, N-[3-((R)-2-1-Aza-bicyclo[2.2.2]oct-3-yl-3-oxo-2,3-dihydro-1H-isoindol-5-yl)-phenyl]-acetamide] showed a Ki of 7 nM. In the case of `O=C1c2cc(-c3ccc4ncccc4c3)ccc2CN1[C@H]1CN2CCC1CC2` [Example 41, 2-(R)-1-Aza-bicyclo[2.2.2]oct-3-yl-6-quinolin-6-yl-2,3-dihydro-isoindol-1-one], the Ki is reported as 329 nM. `O=C1c2cc(-c3cnn(Cc4ccccc4)c3)ccc2CN1[C@H]1CN2CCC1CC2` [Example 51, 2-(R)-1-Aza-bicyclo[2.2.2]oct-3-yl-6-(1-benzyl-1H-pyrazol-4-yl)-2,3-dihydro-isoindol-1-one] was tested, and the Ki was 146 nM. In the case of `O=C1c2cc(-c3cccc4cnccc34)ccc2CN1[C@H]1CN2CCC1CC2` [Example 47, 2-(R)-1-Aza-bicyclo[2.2.2]oct-3-yl-6-isoquinolin-5-yl-2,3-dihydro-isoindol-1-one], the Ki is reported as 32 nM. `CN(C)c1cccc(-c2ccc3c(c2)C(=O)N([C@H]2CN4CCC2CC4)C3)c1` [Example 71, 2-(R)-1-Aza-bicyclo[2.2.2]oct-3-yl-6-(3-dimethylamino-phenyl)-2,3-dihydro-isoindol-1-one] was tested, and the Ki was 4.2 nM. `O=C1c2cc(-c3ccccc3Cl)ccc2CN1[C@H]1CN2CCC1CC2` [Example 35, 2-(R)-1-Aza-bicyclo[2.2.2]oct-3-yl-6-(2-chloro-phenyl)-2,3-dihydro-isoindol-1-one] showed a Ki of 6.3 nM. For `O=C1c2cc(-c3cccc4cccnc34)ccc2CN1[C@H]1CN2CCC1CC2` [Example 33, 2-(R)-1-Aza-bicyclo[2.2.2]oct-3-yl-6-quinolin-8-yl-2,3-dihydro-isoindol-1-one], the Ki was 90 nM. For `CC(=O)Nc1ccccc1-c1ccc2c(c1)C(=O)N([C@H]1CN3CCC1CC3)C2` [Example 65, N-[2-((R)-2-1-Aza-bicyclo[2.2.2]oct-3-yl-3-oxo-2,3-dihydro-1H-isoindol-5-yl)-phenyl]-acetamide], the Ki was 1150 nM. `O=C1c2cc(-c3cncc4ccccc34)ccc2CN1[C@H]1CN2CCC1CC2` [Example 48, 2-(R)-1-Aza-bicyclo[2.2.2]oct-3-yl-6-isoquinolin-4-yl-2,3-dihydro-isoindol-1-one] showed a Ki of 112 nM. For `O=C1c2cc(-c3ccc4c(c3)OCO4)ccc2CN1[C@H]1CN2CCC1CC2` [Example 34, 2-(R)-1-Aza-bicyclo[2.2.2]oct-3-yl-6-benzo[1,3]dioxol-5-yl-2,3-dihydro-isoindol-1-one], the Ki was 37 nM. `COc1ccccc1-c1ccc2c(c1)C(=O)N([C@H]1CN3CCC1CC3)C2` [Example 36, 2-(R)-1-Aza-bicyclo[2.2.2]oct-3-yl-6-(2-methoxy-phenyl)-2,3-dihydro-isoindol-1-one] was tested, and the Ki was 24 nM. Work on `O=C(Nc1cccc(-c2ccc3c(c2)C(=O)N([C@H]2CN4CCC2CC4)C3)c1)c1ccccc1` [Example 64, N-[3-((R)-2-1-Aza-bicyclo[2.2.2]oct-3-yl-3-oxo-2,3-dihydro-1H-isoindol-5-yl)-phenyl]-benzamide] yielded a Ki of 3.9 nM. Work on `O=C(c1cccc(-c2ccc3c(c2)C(=O)N([C@H]2CN4CCC2CC4)C3)c1)N1CCOCC1` [Example 68, 2-(R)-1-Aza-bicyclo[2.2.2]oct-3-yl-6-[3-(morpholine-4-carbonyl)-phenyl]-2,3-dihydro-isoindol-1-one] yielded a Ki of 44 nM. Work on `CN(C)C(=O)c1ccc(-c2ccc3c(c2)C(=O)N([C@H]2CN4CCC2CC4)C3)cc1` [Example 40, 4-((R)-2-1-Aza-bicyclo[2.2.2]oct-3-yl-3-oxo-2,3-dihydro-1H-isoindol-5-yl)-N,N-dimethyl-benzamide] yielded a Ki of 353 nM. Work on `CS(=O)(=O)c1ccc(-c2ccc3c(c2)C(=O)N([C@H]2CN4CCC2CC4)C3)cc1` [Example 44, 2-(R)-1-Aza-bicyclo[2.2.2]oct-3-yl-6-(4-methanesulfonyl-phenyl)-2,3-dihydro-isoindol-1-one] yielded a Ki of 321 nM. `CS(=O)(=O)c1cccc(-c2ccc3c(c2)C(=O)N([C@H]2CN4CCC2CC4)C3)c1` [Example 43, 2-(R)-1-Aza-bicyclo[2.2.2]oct-3-yl-6-(3-methanesulfonyl-phenyl)-2,3-dihydro-isoindol-1-one] was tested, and the Ki was 94 nM. For `CCN(CC)C(=O)c1cccc(-c2ccc3c(c2)C(=O)N([C@H]2CN4CCC2CC4)C3)c1` [Example 66, 3-((R)-2-1-Aza-bicyclo[2.2.2]oct-3-yl-3-oxo-2,3-dihydro-1H-isoindol-5-yl)-N,N-diethyl-benzamide], the Ki was 20 nM. For `CSc1cccc(-c2ccc3c(c2)C(=O)N([C@H]2CN4CCC2CC4)C3)c1` [Example 72, 2-(R)-1-Aza-bicyclo[2.2.2]oct-3-yl-6-(3-methylsulfanyl-phenyl)-2,3-dihydro-isoindol-1-one], the Ki was 37 nM. For `CN(C)C(=O)c1cccc(-c2ccc3c(c2)C(=O)N([C@H]2CN4CCC2CC4)C3)c1` [Example 52, 3-((R)-2-1-Aza-bicyclo[2.2.2]oct-3-yl-3-oxo-2,3-dihydro-1H-isoindol-5-yl)-N,N-dimethyl-benzamide], the Ki was 31 nM. `O=C1c2cc(N3CCOCC3)ccc2CN1[C@H]1CN2CCC1CC2` [Example 39, 2-(R)-1-Aza-bicyclo[2.2.2]oct-3-yl-6-morpholin-4-yl-2,3-dihydro-isoindol-1-one] showed a Ki of 421 nM. `CCC(=O)Nc1cccc(-c2ccc3c(c2)C(=O)N([C@H]2CN4CCC2CC4)C3)c1` [Example 58, N-[3-((R)-2-1-Aza-bicyclo[2.2.2]oct-3-yl-3-oxo-2,3-dihydro-1H-isoindol-5-yl)-phenyl]-propionamide] showed a Ki of 1.7 nM.

Same assay, conditions: read-out: KD of radioligand (saturation curve, one site model)
“125I-α-Bungarotoxin [[^125I]-α-BTX, reference compound]” gave a Kd of 1.67 nM.
